Laboratory results taken from patent US10421676B2, “Bactericidal/algicidal method” (priority 2007, dated 2019).

Experiment: Open-circulating cooling water system, change over time in combined and free chlorine (Example 4 / Comparative Example 1)
Type: physicochemical
Conditions: for Combined chlorine: total residual chlorine minus free chlorine (DPD)
Excerpt: In this open-circulating cooling water system, cooling water is supplied from a cooling tower 1 to a heat exchanger 3 via a cooling water pipe 2 and a pump P, and is returned to the cooling tower 1 via a cooling water pipe 4. The cooling tower 1 (refrigeration capacity: 400 RT, water storage capacity: 30 m^3) was operated at a concentration factor of 5. The cooling tower 1 has a fan F and contains therein air-conditioning cooling water W. The free chlorine concentration of the air-conditioning cooling water W is measured by means of a sensor S and controlled by means of a free chlorine control section 5 and a combined chlorine control section 6. The free chlorine control section 5 includes a chemical tank 51 and a chemical feed inlet 52. Combined chlorine control section 6 includes a chemical tank 61 and a chemical feed inlet 62. The amount of free chlorine or combined chlorine is controlled on the basis of the free chlorine concentration as measured by means of the sensor S employing an ORP electrode.
The amount of free chlorine was controlled through addition of a hypochlorite salt. Chlorosulfamic acid was employed as combined chlorine.
In the water system, chlorosulfamic acid was added so that the chlorine concentration was adjusted to 15 mg-Cl/L with respect to blowing down the cooling water. In the water system, the amount of the hypochlorite salt added was controlled by means of the sensor S so that free chlorine concentration was 0.5 mg-Cl/L. Combined chlorine concentration was measured through the DPD method (determined by use of the following relation: combined chlorine concentration=total residual chlorine concentration−free chlorine concentration).
Flaked slime was non-forcedly discharged through blowing down at an intensity according to the concentration factor, and a forced removal of the slime (e.g., cleaning) was not carried out. Thus, the water system was continuously operated, and change over time in combined chlorine concentration and free chlorine concentration in the water system was observed.
The water system was continuously operated under the same conditions as in Example 4 (i.e., chlorosulfamic acid was added so that the chlorine concentration was adjusted to 15 mg-Cl/L with respect to blowing down the cooling water), except that free chlorine concentration was not controlled.

Question: With O=S(=O)(O)NCl [Comparative Example 1, Chlorosulfamic acid] as the compound, how does the “Combined chlorine concentration, level over the operation period” value (operation period up to 20 days) read?
Answer: Its value is “maintained at low level”.

Question: And the Free chlorine (period 1 days)?
Answer: Its Free chlorine is 0.0 mg/L.

Question: What about the Combined chlorine (period 1 days) of the same compound?
Answer: Its Combined chlorine is 3 mg/L.

Question: And the Free chlorine (period 2 days)?
Answer: Its Free chlorine is 0.0 mg/L.

Question: And the Combined chlorine (period 2 days)?
Answer: Its Combined chlorine is 4 mg/L.

Question: What about the Free chlorine (period 8 days) of the same compound?
Answer: The Free chlorine was 0.1 mg/L.

Question: What about the Combined chlorine (period 8 days) of the same compound?
Answer: Its Combined chlorine is 3 mg/L.

Question: And the Free chlorine (period 14 days)?
Answer: Its Free chlorine is 0.0 mg/L.

Question: And the Combined chlorine (period 14 days)?
Answer: Its Combined chlorine is 2 mg/L.

Question: And the Free chlorine (period 20 days)?
Answer: The Free chlorine was 0.1 mg/L.

Question: What about the Combined chlorine (period 20 days) of the same compound?
Answer: The Combined chlorine was 4 mg/L.
